Here are results for 11 molecules from ChEMBL document CHEMBL1201862, “PubChem BioAssay data set” (2004).

Holding throughout (experiment): DTP human tumour cell line panel, 48 h
Assay [1] deals with HL-60.
Assay [2] has as its system EKVX.
For assay [3], the system named is HCT-15.
In assay [4] the test system is SW-620.
For assay [5], the system named is OVCAR-8.
Assay [6] deals with NCI-H522.
Assay [7] relates to SNB-75.
The test system of assay [8] is K562.
Assay [9] deals with SF-295.
Assay [10] deals with KM12.
In assay [11] the test system is SK-MEL-5.
Assay [12] deals with PC-3.
Assay [13] has as its system SK-OV-3.
Assay [14] has as its system Malme-3M.
Assay [15] deals with SK-MEL-28.
Assay [16] relates to ACHN.
Assay [17] has as its system M14.
In assay [18] the test system is SF-268.
Assay [19] concerns COLO 205.
Assay [20] concerns OVCAR-4.

The structures appear in SMILES notation.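 Where inhibition never reached the appropriate level, the endpoint shown equals the highest concentration tested. Otherwise, values were interpolated linearly from a five-concentration, 48-hour dose response in 96-well plates. At the GI50, growth is halved.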 Active and inactive are the calls of the source. No stated cut-off is given here; in the data, active = GI50 up to about 1.1 µM and inactive = higher.

`CC1(C)[C@@H]2C[C@H]1C(Cc1ccc(C[C@H]3c4cc(-c5ccccn5)ncc4[C@H]4C[C@@H]3C4(C)C)cc1)c1cc(-c3ccccn3)ncc12` (stereo not given in full): the GI50 in assay [1] was 0.518 µM (active); in [2], 1.32 µM (inactive); in assay [3], 2.9 µM; in assay [4], 3.46 µM (inactive); in assay [5], 0.678 µM (active); in assay [6] it was 7.14 µM (inactive). Besides, the GI50 in assay [7] is 59.8 µM (inactive); in assay [8], 0.649 µM (active); in assay [9], 1.22 µM (inactive); in assay [10] it was 2.18 µM (inactive); in assay [11], 0.619 µM (active); in [12], 0.587 µM (active). Besides, the GI50 was 7.83 µM (inactive) in [13]; 4.53 µM (inactive) in assay [14]; 3.54 µM (inactive) in [15]; 0.971 µM (active) in [16]; 1.16 µM (inactive) in assay [17]; 0.865 µM (active) in assay [18]. Moreover, the GI50 in assay [19] was 1.41 µM (inactive).
With `Fc1cc2nc3n(c2cc1F)C(c1c(F)cccc1F)SC3` (stereo not given), the GI50 in assay [1] is 16.8 µM (inactive); in assay [20], 42.1 µM (inactive); in assay [3], 44 µM; in assay [4] it was 45 µM (inactive); in assay [5], 42 µM (inactive); in assay [6], 24.9 µM (inactive). Also, the GI50 in assay [7] is 31.4 µM (inactive); in [9] it was 37.2 µM (inactive); in assay [10], 41.1 µM (inactive); in assay [11], 17.3 µM (inactive); in assay [12], 37.3 µM (inactive); in [13], 42.7 µM (inactive). For the same molecule, the GI50 in assay [14] is 50.8 µM (inactive); in assay [15], 43 µM (inactive); in [16] it was 61 µM (inactive); in assay [17], 30.5 µM (inactive); in [18], 74 µM (inactive); in [19], 31.3 µM (inactive).
In the case of `C/C=C1/CN2CCc3c([nH]c4ccccc34)[C@@H]2C[C@@H]1Cc1nccc2c1[nH]c1cc(O)ccc12`, the GI50 was 2.45 µM (inactive) in assay [1]; 2.07 µM (inactive) in assay [2]; 1.57 µM (inactive) in assay [20]; 2.9 µM in assay [3]; 2.82 µM (inactive) in assay [4]; 1.9 µM (inactive) in assay [5]. Further, the GI50 in [6] was 1.89 µM (inactive); in assay [7], 1.64 µM (inactive); in [8], 2.13 µM (inactive); in assay [9], 1.9 µM (inactive); in [10], 1.95 µM (inactive); in [11], 1.57 µM (inactive). The GI50 in assay [12] is 2.25 µM (inactive); in assay [13] it was 2.17 µM (inactive); in [15], 1.92 µM (inactive); in [16] it was 2.29 µM (inactive); in assay [17], 2.16 µM (inactive); in [18] it was 1.77 µM (inactive). Moreover, the GI50 in assay [19] was 2.78 µM (inactive).
For `CC(C)(C)NC(NC(C)(C)C)=C(/C=C(/Cl)[N+](=O)[O-])[N+](=O)[O-]`, the GI50 is 29.5 µM (inactive) in assay [1]; > 100 µM (inactive) in [2]; 17.1 µM (inactive) in [20]; 73.1 µM in [3]; 38.7 µM (inactive) in assay [5]; > 100 µM (inactive) in assay [6]. For the same molecule, the GI50 is 0.0395 µM (active) in assay [7]; 55.1 µM (inactive) in assay [8]; > 100 µM (inactive) in assay [9]; > 100 µM (inactive) in [10]; 44.9 µM (inactive) in assay [11]; 45.6 µM (inactive) in assay [12]. The GI50 in [13] was > 100 µM (inactive); in [14], 10.3 µM (inactive); in [15], > 100 µM (inactive); in assay [16] it was 65.3 µM (inactive); in [17] it was 27.7 µM (inactive); in assay [18] it was 74.6 µM (inactive). In assay [19], the GI50 is 26.4 µM (inactive).
On to `N#C[C@H](c1nc2ccccc2s1)c1nc2ccccc2nc1Cl`, for which the GI50 in [1] was > 100 µM (inactive); in assay [2], > 100 µM (inactive); in assay [20], 16.3 µM (inactive); in assay [3], 4.04 µM; in assay [4], > 100 µM (inactive); in [5], > 100 µM (inactive). For the same molecule, the GI50 is 57.3 µM (inactive) in assay [6]; > 100 µM (inactive) in assay [7]; 17.1 µM (inactive) in assay [9]; 80.9 µM (inactive) in assay [10]; > 100 µM (inactive) in assay [11]; 31 µM (inactive) in [12]. The GI50 in assay [13] is 23.6 µM (inactive); in assay [14], > 100 µM (inactive); in [15], > 100 µM (inactive); in assay [16], 14.2 µM (inactive); in assay [17], 15.7 µM (inactive); in [19], > 100 µM (inactive).
Regarding `Cc1cccc(/C=C2\CCCCCC2=O)c1`, the 50% growth inhibitory concentration (GI50) in [1] is < 0.01 µM (active); in assay [2], > 100 µM (inactive); in assay [20] it was > 100 µM (inactive); in [3], greater than 100 µM; in assay [4], > 100 µM (inactive); in assay [6], > 100 µM (inactive). Further, the GI50 in [7] is > 100 µM (inactive); in [8], > 100 µM (inactive); in assay [9], > 100 µM (inactive); in [10], > 100 µM (inactive); in assay [11] it was 79.1 µM (inactive); in [12], > 100 µM (inactive). Besides, the GI50 in assay [13], in assay [14], in assay [15], in [16], in [17] and in assay [18] was > 100 µM (inactive) in each case. The GI50 in assay [19] was > 100 µM (inactive).
Turning to `C[C@H]1CC[C@@]2(NC1)O[C@H]1C[C@H]3[C@@H]4CC[C@H]5C[C@@H](O)CC[C@]5(C)[C@H]4CC[C@]3(C)[C@H]1[C@@H]2C`, the GI50 is 51.1 µM (inactive) in assay [1]; > 100 µM (inactive) in assay [2]; 35.6 µM (inactive) in [20]; 42.7 µM in assay [3]; 38.8 µM (inactive) in [5]; 59.4 µM (inactive) in [6]. Further, the GI50 in assay [7] is 57.5 µM (inactive); in assay [8] it was > 100 µM (inactive); in assay [9], 55.7 µM (inactive); in assay [10] it was 71.8 µM (inactive); in [11] it was 90.4 µM (inactive); in assay [12], > 100 µM (inactive). In addition, the GI50 in [13] was > 100 µM (inactive); in assay [16], 39.5 µM (inactive); in assay [17], > 100 µM (inactive); in assay [18], 74.8 µM (inactive); in assay [19] it was > 100 µM (inactive).
`NC(=O)CN1C=CCC(C(N)=O)=C1` [CARICOTAMIDE]: the GI50 in [1] is > 100 µM (inactive); in [2], > 100 µM (inactive); in assay [20], > 100 µM (inactive); in assay [3], greater than 100 µM; in assay [4] it was > 100 µM (inactive); in assay [5] it was > 100 µM (inactive). The GI50 in assay [6], in [7], in assay [8], in assay [9], in assay [10] and in assay [11] was > 100 µM (inactive) throughout. For the same molecule, the GI50 in [12], in assay [13], in assay [14], in [16], in [17] and in assay [18] was > 100 µM (inactive) in each case. Further, in assay [19], the GI50 is > 100 µM (inactive).
Take `COc1ccc(/C(C)=N/OC(=O)c2c(-c3ccccc3Cl)noc2C)cc1CN1CCOCC1`: the GI50 in [1] was 17.1 µM (inactive); in [20], 29.4 µM (inactive); in assay [3], 26.5 µM; in assay [4] it was 43.1 µM (inactive); in assay [5], 29.3 µM (inactive); in assay [6], 17.8 µM (inactive). The GI50 in assay [7] is 28.4 µM (inactive); in [8], 28.2 µM (inactive); in assay [9], 11.5 µM (inactive); in assay [10], 22.4 µM (inactive); in assay [11] it was 17.3 µM (inactive); in assay [12], 24.2 µM (inactive). For the same molecule, the GI50 in [13] is 29.4 µM (inactive); in assay [14] it was 21.2 µM (inactive); in [15], 19.7 µM (inactive); in [16] it was 15.7 µM (inactive); in assay [17], 14 µM (inactive); in assay [18], 30.8 µM (inactive). In addition, the GI50 in assay [19] was 16.2 µM (inactive).
Take `O=c1ccc2nc3ccc(O)cc3oc-2c1`: the GI50 in assay [1] is 10.5 µM (inactive); in assay [2], > 100 µM (inactive); in assay [20] it was > 68.1 µM (inactive); in assay [3] it was 13.5 µM; in assay [4], 13.2 µM (inactive); in assay [5] it was 16.4 µM (inactive). Besides, the GI50 in assay [6] was 5.32 µM (inactive); in assay [7], 6.78 µM (inactive); in assay [8] it was 6.1 µM (inactive); in assay [9], 8.49 µM (inactive); in assay [10], 5.6 µM (inactive); in assay [11], 1.6 µM (inactive). Moreover, the GI50 was 4.69 µM (inactive) in assay [12]; > 100 µM (inactive) in assay [13]; 2.72 µM (inactive) in assay [14]; 8.11 µM (inactive) in assay [16]; 4.3 µM (inactive) in assay [17]; 28.8 µM (inactive) in [18]. Also, in assay [19], the GI50 was 6.25 µM (inactive).
As for `O=C(/C=C/c1ccc2c(c1)OCO2)CC(=O)C(=O)c1c[nH]c2ccccc12`, the GI50 in assay [1] is 29.2 µM (inactive); in assay [2], 38.5 µM (inactive); in assay [3], 36.8 µM; in assay [4], 29.4 µM (inactive); in [5], 37.1 µM (inactive); in [6], 68.5 µM (inactive). In addition, the GI50 was 29.3 µM (inactive) in assay [7]; 24.2 µM (inactive) in assay [8]; 61.8 µM (inactive) in assay [9]; 33.4 µM (inactive) in assay [10]; 58.3 µM (inactive) in assay [11]; 37 µM (inactive) in [12]. The GI50 in assay [13] is 35.2 µM (inactive); in assay [14] it was > 100 µM (inactive); in assay [15], > 100 µM (inactive); in assay [16], 44.2 µM (inactive); in assay [17], 63.2 µM (inactive); in [18] it was 37.2 µM (inactive). For the same molecule, the GI50 in assay [19] is 35.3 µM (inactive).
